Patent US6682732B1, “Treatment of lesions” (The University of Bath, priority 1998, dated 2004)

How the values were obtained:
E. coli = experiment: Effect of peroxynitrite scavenger on bacterial growth, growth curves by absorbance (Test 6(c)); format: cell-based
Method: E. coli were seeded into nutrient broth at 2.10^7 cell ml^−1 and incubated at 37° C. under atmospheric air conditions (that is, 21% oxygen saturation). Four separate test samples of volume 1 ml were prepared by addition at 1 hour of incubation as follows:
1 Peroxynitrite at concentration 100 μM.
2 Peroxynitrite at 100 μM and quercetin (peroxynitrite scavenger) at 100 μμM.
3 Xanthine oxidase (53.2 μg) and xanthine at 100 μM.
4 Xanthine oxidase (53.2 μg) and NADH at 100 μM.
Corresponding controls were also prepared, and the growth curves generated over time determined by monitoring absorbance.

S. enteritidis [1] = experiment: Effect of xanthine oxidase derived species on cell viability at a range of oxygen concentrations (Test 6(b)); format: cell-based; settings: XO, NADH, NaNO2 system
Method: Aliquots were taken and incubated with a reaction system consisting of bovine Xanthine oxidase (XO) (53.2 μgml^−1), nicotinamide adenine dinucleotide in reduced form (NADH) (300 μM), sodium nitrite, (NaNO2) 1 mM and oxygen at a range of concentrations. […] This reaction was followed at 37° C. for 30 min with mixing before an aliquot was taken and plated onto agar and incubated in a warm room at 37° C. Viable cells formed colonies on the agar and were counted. Viable cell counts were performed in triplicate and the results expressed as a percentage viable count in each case related to a non enzyme control of the same oxygen concentration. […] The range of oxygen tensions used covers those in which XO has previously been considered to be active, namely superoxide generation (21% O2 saturation) and nitric oxide production (0% O2 saturation).

[2] = Nitric oxide release from pure bovine xanthine oxidase with NADH and nitrite under hypoxic conditions (ozone chemiluminescence, Tests 1-3); format: biochemical
Method: The production of nitric oxide in the following tests and examples was analysed using an ozone chemiluminescence assay in a continuous flow apparatus (Sievers NOA 280) that allows the real time analysis of NO production. The apparatus was modified to allow a constant stream of nitrogen to flow into the reaction chamber. Chemiluminescence data were collected by a data acquisition system; the mean NO produced in parts per billion (ppb) was calculated from readings taken every second and shown as NO ppb/s. Progress curves, of molar production of NO against time, were calculated by taking into account the gas flow and successively integrating the ppb/s curves. […]
(d) Samples of NO were taken from the reaction cell by a needle that was connected to a Sievers Nitric Oxide Analyser (NOA-280 ) and the results were recorded for analysis using a computer.
(e) At time (t) 0 minutes, the NOA-280 started the measurement of NO from the reaction cell. At t=1 minute, the contents of the “substrates” bijou were injected into the reaction cell using a 1 ml syringe and the background NO was measured.
(f) At t=5 minutes, the contents of the “milk” bijou were injected into the reaction cell using a 1 ml syringe and the release of NO was monitored for a further 20 minutes. […]

E.coli = experiment: Effect of xanthine oxidase derived species on cell viability at a range of oxygen concentrations (Test 6(b)); format: cell-based, Escherichia coli; settings: XO, NADH, NaNO2 system
Method: To obtain cells used in this test, the infective bacterial strain Escherichia coli NCTC 86 (E.coli) was cultured on nutrient agar at 37° until colony formation occurred, usually overnight. This stock culture was used for subsequent experiments including sub-culturing in nutrient broth and plated onto agar weekly. Experimental cultures of E.coli were set up overnight in nutrient broth from single colonies on an agar plate. Cells were harvested and counted using a standard curve of known absorbance at 470 nm against viable cell count. Peroxynitrite was generated by the method of Crow et al BIOCHEM. 34 pages 3544 to 3552 (1995). In accordance with that method, a mixture of sodium nitrite and hydrogen peroxide was reacted under acid conditions then immediately quenched by the addition of sodium hydroxide. The concentration of ONOO^− formed was measured using an absorption coefficient of 1670 M^−1 cm^−1 in a spectrophotometer at a wavelength of 303 nm. […]
E.coli were cultured as described above. […] Desired oxygen concentrations were generated by delivery of a mixture of oxygen and nitrogen in appropriate proportions and determined using a Clark type O2 electrode. […] Viable cells formed colonies on the agar and were counted. Viable cell counts were performed in triplicate and the results expressed as a percentage viable count in each case related to a non enzyme control of the same oxygen concentration. […]

[3] = system: Staphylococcus aureus 6751; experiment: Bacterial growth rate by optical density, 96 well plate (Tests 6(d), 6(e)); format: cell-based
Method: (§1) Bacteria were seeded into nutrient broth (NB) and grown over night at 37° C. The culture was then counted and normalised to give a final cell concentration of 1.8×10^7 cells well^−1 into the wells of a 96 well plate in fresh nutrient broth. The optical density of each well was monitored every 15 minutes as a measure of the growth rate of each bacterial species. Growth curves were generated for each species and the maximal rate of growth (logarithmic phase) was measured. Cells were treated to a range of experimental conditions in which the growth rate of cells was related to a control of untreated cells. The results were expressed as a percentage of the growth rate of the control cells.
(§2) (i) At a fixed concentration of hypoxanthine (100 μM) a range of purified XO protein concentrations were added at time 0 minutes. The optical density was followed and the growth rate calculated.
(§3) (ii) The growth rate was also measured in relation to the concentration of hypoxanthine, using 30 μg of XO with cells seeded as described above.

Straphylococcu aureus = experiment: Incubation of Gram positive bacteria with SIN-1, growth; format: cell-based
Escherichia coli NCTC 86 = experiment: Peroxynitrite effect on cell viability, colony count (Test 6(a)); format: cell-based; settings: E. coli; 100 μM to 0.01 μM; FIG. 1
Method: To obtain cells used in this test, the infective bacterial strain Escherichia coli NCTC 86 (E.coli) was cultured on nutrient agar at 37° until colony formation occurred, usually overnight. This stock culture was used for subsequent experiments including sub-culturing in nutrient broth and plated onto agar weekly. Experimental cultures of E.coli were set up overnight in nutrient broth from single colonies on an agar plate. Cells were harvested and counted using a standard curve of known absorbance at 470 nm against viable cell count. Peroxynitrite was generated by the method of Crow et al BIOCHEM. 34 pages 3544 to 3552 (1995). In accordance with that method, a mixture of sodium nitrite and hydrogen peroxide was reacted under acid conditions then immediately quenched by the addition of sodium hydroxide. The concentration of ONOO^− formed was measured using an absorption coefficient of 1670 M^−1 cm^−1 in a spectrophotometer at a wavelength of 303 nm. Solutions of different concentrations for use in (a) below were obtained by dilution of the product solution using PBS.
Cells cultured as described above were diluted to suitable working concentrations (10^4-10^5 Cells Ml^−1) in sterile phosphate buffered saline (PBS). […] Viable cells formed colonies on the agar and were counted. […]

S. enteritidis [4] = experiment: as above; format: cell-based
Method: Cells cultured as described above were diluted to suitable working concentrations (10^4-10^5 Cells Ml^−1) in sterile phosphate buffered saline (PBS). ONOO^− at a range of concentrations from 100 μM to 0.01 μM was added as a bolus dose to cells and incubated at room temperature for ten minutes. Aliquots were taken from the cell cultures and plated on to nutrient agar and incubated in a warm room at 37° C. overnight. Viable cells formed colonies on the agar and were counted. The number of colonies formed was related to an untreated control and a graph of the results is shown in FIG. 1, which illustrates the effect of ONOO^− on cell viability.

Lactobacillus casei 6375 = experiment: Bacterial growth rate by optical density, 96 well plate (Tests 6(d), 6(e)); format: cell-based; settings: highest concentration
Method: as §1, §2, §3

O=c1c(O)c(-c2ccc(O)c(O)c2)oc2cc(O)cc(O)c12 [quercetin]
effect of scavenger on peroxynitrite killing (E. coli; sample (2): peroxynitrite 100 μM and quercetin 100 μμM): clear effect in reducing killing

XOR: Bovine xanthine oxidase (XOR), Biozyme, Blaenavon, UK; 10.7 mg/ml, batch 104AX
killing at oxygen concentrations of about 21% (S. enteritidis [1]): about 10%
optimum pH for the production of NO from XOR [2]: ~5.5 pH
killing at oxygen concentrations of about 21% (E.coli): about 5%
growth inhibition by XO ([3]; hypoxanthine 100 μM, compared with Lactobacillus, FIG. 3): less marked growth inhibition

N=c1c[n+](N2CCOCC2)[n-]o1 [SIN-1, 3-morpholinosydnonimine]
growth on incubation with SIN-1 (Straphylococcu aureus): reduced growth in dependence on the amount of added SIN-1

O=NOO [Peroxynitrite]
killing (growth curves) (E. coli; sample (1): peroxynitrite 100 μM added at 1 hour, 21% oxygen saturation): strong killing
effect on cell viability (viable count) (Escherichia coli NCTC 86): profound inhibitory effect
effect on viability (S. enteritidis [4]): reduce viability

O=c1[nH]c(=O)c2c[nH]nc2[nH]1 [Oxypurinol]
effect on growth rate when added alone (Lactobacillus casei 6375): no effect on growth rate

OO [H2O2, hydrogen peroxide]
growth inhibition in the presence of H2O2 ([3]; S. aureus, concentration ranges used): very limited
